According to patent US10227344B2, “CK2 inhibitors, compositions and methods thereof” (Polaris Pharmaceuticals, Inc., priority 2016, dated 2019):

Key:
Format in all cases: cell-based
MDA-MB-231 = test: Cancer cell panel, cell viability (resazurin): Breast, MDA-MB-231; details: MDA-MB-231 (Breast), 72 hours; labelled drug combined with Example 3
SKOV-3 = test: Cancer cell panel, cell viability (resazurin): Ovarian, SKOV-3; details: SKOV-3 (Ovarian), 72 hours; labelled drug combined with Example 3
Colo205 = test: Cancer cell panel, cell viability (resazurin): Colon, Colo205; details: 72 hours, labelled drug combined with Example 3
Caov-3 = test: Cancer cell panel, cell viability (resazurin): Ovarian, Caov-3; details: Caov-3 (Ovarian), 72 hours; labelled drug combined with Example 3
RPMI8226 = test: Cancer cell panel, cell viability (resazurin): multiple myeloma, RPMI8226; details: 72 hours, labelled drug combined with Example 3
U87MG = test: Cancer cell panel, cell viability (resazurin): Glioblastoma, U87MG; details: 72 hours, labelled drug combined with Example 3
Caki-1 = test: Cancer cell panel, cell viability (resazurin): Renal, Caki-1; details: Caki-1 (Renal), 72 hours; labelled drug combined with Example 3
DLD-1 = test: Cancer cell panel, cell viability (resazurin): Colon, DLD-1; details: DLD-1 (Colon), 72 hours; labelled drug combined with Example 3
H460 = test: Cancer cell panel, cell viability (resazurin): NSCLC, H460; details: 72 hours, labelled drug combined with Example 3
786-O = test: Cancer cell panel, cell viability (resazurin): Renal, 786-O; details: 786-O (Renal), 72 hours; labelled drug combined with Example 3
HL60 = test: Cancer cell panel, cell viability (resazurin): Leukemia, HL60; details: 72 hours, labelled drug combined with Example 3
Caki-2 = test: Cancer cell panel, cell viability (resazurin): Renal, Caki-2; details: Caki-2 (Renal), 72 hours; labelled drug combined with Example 3
ZR-75-1 = test: Cancer cell panel, cell viability (resazurin): Breast, ZR-75-1; details: ZR-75-1 (Breast), 72 hours; labelled drug combined with Example 3
EOL-1 = test: Cancer cell panel, cell viability (resazurin): Leukemia, EOL-1; details: EOL-1 (Leukemia), 72 hours; labelled drug combined with Example 3
HCT116 = test: Cancer cell panel, cell viability (resazurin): Colon, HCT116; details: 72 hours, labelled drug combined with Example 3
BxPC3 = test: Cancer cell panel, cell viability (resazurin): Pancreatic, BxPC3; details: 72 hours, labelled drug combined with Example 3
MOLT4 = test: Cancer cell panel, cell viability (resazurin): Leukemia, MOLT4; details: 72 hours, labelled drug combined with Example 3
Daudi = test: Cancer cell panel, cell viability (resazurin): Burkitt's Lymphoma, Daudi; details: 72 hours, labelled drug combined with Example 3
A375 = test: Cancer cell panel, cell viability (resazurin): Melanoma, A375; details: 72 hours, labelled drug combined with Example 3
ACHN = test: Cancer cell panel, cell viability (resazurin): Renal, ACHN; details: 72 hours, labelled drug combined with Example 3
SK-MEL-3 = test: Cancer cell panel, cell viability (resazurin): Melanoma, SK-MEL-3; details: SK-MEL-3 (Melanoma), 72 hours; labelled drug combined with Example 3
H23 = test: Cancer cell panel, cell viability (resazurin): NSCLC, H23; details: 72 hours, labelled drug combined with Example 3
Raji = test: Cancer cell panel, cell viability (resazurin): Burkitt's Lymphoma, Raji; details: 72 hours, labelled drug combined with Example 3
H1299 = test: Cancer cell panel, cell viability (resazurin): NSCLC, H1299; details: 72 hours, labelled drug combined with Example 3
A2780 = test: Cancer cell panel, cell viability (resazurin): Ovarian, A2780; details: 72 hours, labelled drug combined with Example 3
MDA-MB-453 = test: Cancer cell panel, cell viability (resazurin): Breast, MDA-MB-453; details: MDA-MB-453 (Breast), 72 hours; labelled drug combined with Example 3
T47D = test: Cancer cell panel, cell viability (resazurin): Breast, T47D; details: 72 hours, labelled drug combined with Example 3
Mia-Paca-2 = test: Cancer cell panel, cell viability (resazurin): Pancreatic, Mia-Paca-2; details: Mia-Paca-2 (Pancreatic), 72 hours; labelled drug combined with Example 3
Panc-1 = test: Cancer cell panel, cell viability (resazurin): Pancreatic, Panc-1; details: Panc-1 (Pancreatic), 72 hours; labelled drug combined with Example 3
MCF7 = test: Cancer cell panel, cell viability (resazurin): Breast, MCF7; details: 72 hours, labelled drug combined with Example 3
Ramos = test: Cancer cell panel, cell viability (resazurin): Burkitt's Lymphoma, Ramos; details: 72 hours, labelled drug combined with Example 3
LoVo = test: Cancer cell panel, cell viability (resazurin): Colon, LoVo; details: 72 hours, labelled drug combined with Example 3
PC3 = test: Cancer cell panel, cell viability (resazurin): Prostate, PC3; details: 72 hours, labelled drug combined with Example 3
H1975 = test: Cancer cell panel, cell viability (resazurin): NSCLC, H1975; details: 72 hours, labelled drug combined with Example 3
SkBr-3 = test: Cancer cell panel, cell viability (resazurin): Breast, SkBr-3; details: SkBr-3 (Breast), 72 hours; labelled drug combined with Example 3
A549 = test: Cancer cell panel, cell viability (resazurin): NSCLC, A549; details: 72 hours, labelled drug combined with Example 3
MeWO = test: Cancer cell panel, cell viability (resazurin): Melanoma, MeWO; details: 72 hours, labelled drug combined with Example 3
WM-115 = test: Cancer cell panel, cell viability (resazurin): Melanoma, WM-115; details: WM-115 (Melanoma), 72 hours; labelled drug combined with Example 3
NAMALWA = test: Cancer cell panel, cell viability (resazurin): Burkitt's Lymphoma, NAMALWA; details: 72 hours, labelled drug combined with Example 3
MDA-MB-157 = test: Cancer cell panel, cell viability (resazurin): Breast, MDA-MB-157; details: MDA-MB-157 (Breast), 72 hours; labelled drug combined with Example 3
H2122 = test: Cancer cell panel, cell viability (resazurin): NSCLC, H2122; details: 72 hours, labelled drug combined with Example 3
BT-474 = test: Cancer cell panel, cell viability (resazurin): Breast, BT-474; details: BT-474 (Breast), 72 hours; labelled drug combined with Example 3
SK-MEL-24 = test: Cancer cell panel, cell viability (resazurin): Melanoma, SK-MEL-24; details: SK-MEL-24 (Melanoma), 72 hours; labelled drug combined with Example 3
K562 = test: Cancer cell panel, cell viability (resazurin): Leukemia, K562; details: 72 hours, labelled drug combined with Example 3
BT-20 = test: Cancer cell panel, cell viability (resazurin): Breast, BT-20; details: BT-20 (Breast), 72 hours; labelled drug combined with Example 3
LnCap = test: Cancer cell panel, cell viability (resazurin): Prostate, LnCap; details: 72 hours, labelled drug combined with Example 3

With `Nc1ccn([C@@H]2O[C@H](CO)[C@@H](O)C2(F)F)c(=O)n1` [Gemcitabine, gemcitabine] the “synergy, additivity or antagonism of the combination of Example 3 with the anti-cancer drug” value (“synergy, additivity or antagonism” for short) (MDA-MB-231) was “+ + (Slight synergy relative to each agent alone (CI = 0.75-0.9 by Bliss Independence Model))”, the “synergy, additivity or antagonism” value (SKOV-3) was “+ + (Slight synergy relative to each agent alone (CI = 0.75-0.9 by Bliss Independence Model))” and the “synergy, additivity or antagonism” value (Colo205) was “+ (Additive relative to each agent alone (CI = 0.9-1 by Bliss Independence Model and <0.9 by Highest Single Agent Model))”. For the same molecule, the “synergy, additivity or antagonism” value (Caov-3) was “+ (Additive relative to each agent alone (CI = 0.9-1 by Bliss Independence Model and <0.9 by Highest Single Agent Model))”, the “synergy, additivity or antagonism” value (RPMI8226) was “+ + (Slight synergy relative to each agent alone (CI = 0.75-0.9 by Bliss Independence Model))” and the “synergy, additivity or antagonism” value (U87MG) was “+ (Additive relative to each agent alone (CI = 0.9-1 by Bliss Independence Model and <0.9 by Highest Single Agent Model))”. For the same molecule, the “synergy, additivity or antagonism” value (Caki-1) was “+ (Additive relative to each agent alone (CI = 0.9-1 by Bliss Independence Model and <0.9 by Highest Single Agent Model))”, the “synergy, additivity or antagonism” value (DLD-1) was “+ (Additive relative to each agent alone (CI = 0.9-1 by Bliss Independence Model and <0.9 by Highest Single Agent Model))” and the “synergy, additivity or antagonism” value (H460) was “+ + (Slight synergy relative to each agent alone (CI = 0.75-0.9 by Bliss Independence Model))”. The “synergy, additivity or antagonism” value (786-O) was “+ + + (Synergy relative to each agent alone (CI = 0.4-0.74 by Bliss Independence Model))”, the “synergy, additivity or antagonism” value (HL60) was “+ + (Slight synergy relative to each agent alone (CI = 0.75-0.9 by Bliss Independence Model))” and the “synergy, additivity or antagonism” value (Caki-2) was “+ (Additive relative to each agent alone (CI = 0.9-1 by Bliss Independence Model and <0.9 by Highest Single Agent Model))”. The “synergy, additivity or antagonism” value (ZR-75-1) was “+ (Additive relative to each agent alone (CI = 0.9-1 by Bliss Independence Model and <0.9 by Highest Single Agent Model))”, the “synergy, additivity or antagonism” value (EOL-1) was “+ + + + (Strong synergy relative to each agent alone (CI < 0.4 by Bliss Independence Model))” and the “synergy, additivity or antagonism” value (HCT116) was “+ (Additive relative to each agent alone (CI = 0.9-1 by Bliss Independence Model and <0.9 by Highest Single Agent Model))”. The “synergy, additivity or antagonism” value (BxPC3) was “+ + + (Synergy relative to each agent alone (CI = 0.4-0.74 by Bliss Independence Model))”, the “synergy, additivity or antagonism” value (MOLT4) was “+ + + (Synergy relative to each agent alone (CI = 0.4-0.74 by Bliss Independence Model))” and the “synergy, additivity or antagonism” value (Daudi) was “+ + (Slight synergy relative to each agent alone (CI = 0.75-0.9 by Bliss Independence Model))”. For the same molecule, the “synergy, additivity or antagonism” value (A375) was “+ (Additive relative to each agent alone (CI = 0.9-1 by Bliss Independence Model and <0.9 by Highest Single Agent Model))”, the “synergy, additivity or antagonism” value (ACHN) was “+ (Additive relative to each agent alone (CI = 0.9-1 by Bliss Independence Model and <0.9 by Highest Single Agent Model))” and the “synergy, additivity or antagonism” value (SK-MEL-3) was “+ (Additive relative to each agent alone (CI = 0.9-1 by Bliss Independence Model and <0.9 by Highest Single Agent Model))”. For the same molecule, the “synergy, additivity or antagonism” value (H23) was “+ (Additive relative to each agent alone (CI = 0.9-1 by Bliss Independence Model and <0.9 by Highest Single Agent Model))”, the “synergy, additivity or antagonism” value (Raji) was “+ + (Slight synergy relative to each agent alone (CI = 0.75-0.9 by Bliss Independence Model))” and the “synergy, additivity or antagonism” value (H1299) was “+ (Additive relative to each agent alone (CI = 0.9-1 by Bliss Independence Model and <0.9 by Highest Single Agent Model))”. The “synergy, additivity or antagonism” value (A2780) was “+ + + (Synergy relative to each agent alone (CI = 0.4-0.74 by Bliss Independence Model))”, the “synergy, additivity or antagonism” value (MDA-MB-453) was “+ + (Slight synergy relative to each agent alone (CI = 0.75-0.9 by Bliss Independence Model))” and the “synergy, additivity or antagonism” value (T47D) was “+ (Additive relative to each agent alone (CI = 0.9-1 by Bliss Independence Model and <0.9 by Highest Single Agent Model))”. For the same molecule, the “synergy, additivity or antagonism” value (Mia-Paca-2) was “+ + (Slight synergy relative to each agent alone (CI = 0.75-0.9 by Bliss Independence Model))”, the “synergy, additivity or antagonism” value (Panc-1) was “+ (Additive relative to each agent alone (CI = 0.9-1 by Bliss Independence Model and <0.9 by Highest Single Agent Model))” and the “synergy, additivity or antagonism” value (MCF7) was “+ (Additive relative to each agent alone (CI = 0.9-1 by Bliss Independence Model and <0.9 by Highest Single Agent Model))”. The “synergy, additivity or antagonism” value (Ramos) was “+ + (Slight synergy relative to each agent alone (CI = 0.75-0.9 by Bliss Independence Model))”, the “synergy, additivity or antagonism” value (LoVo) was “+ (Additive relative to each agent alone (CI = 0.9-1 by Bliss Independence Model and <0.9 by Highest Single Agent Model))” and the “synergy, additivity or antagonism” value (PC3) was “+ (Additive relative to each agent alone (CI = 0.9-1 by Bliss Independence Model and <0.9 by Highest Single Agent Model))”. The “synergy, additivity or antagonism” value (H1975) was “+ (Additive relative to each agent alone (CI = 0.9-1 by Bliss Independence Model and <0.9 by Highest Single Agent Model))”, the “synergy, additivity or antagonism” value (SkBr-3) was “+ (Additive relative to each agent alone (CI = 0.9-1 by Bliss Independence Model and <0.9 by Highest Single Agent Model))” and the “synergy, additivity or antagonism” value (A549) was “+ + + + (Strong synergy relative to each agent alone (CI < 0.4 by Bliss Independence Model))”. For the same molecule, the “synergy, additivity or antagonism” value (MeWO) was “+ (Additive relative to each agent alone (CI = 0.9-1 by Bliss Independence Model and <0.9 by Highest Single Agent Model))”, the “synergy, additivity or antagonism” value (WM-115) was “+ (Additive relative to each agent alone (CI = 0.9-1 by Bliss Independence Model and <0.9 by Highest Single Agent Model))” and the “synergy, additivity or antagonism” value (NAMALWA) was “+ + (Slight synergy relative to each agent alone (CI = 0.75-0.9 by Bliss Independence Model))”. The “synergy, additivity or antagonism” value (MDA-MB-157) was “+ + (Slight synergy relative to each agent alone (CI = 0.75-0.9 by Bliss Independence Model))”, the “synergy, additivity or antagonism” value (H2122) was “+ + (Slight synergy relative to each agent alone (CI = 0.75-0.9 by Bliss Independence Model))” and the “synergy, additivity or antagonism” value (BT-474) was “+ (Additive relative to each agent alone (CI = 0.9-1 by Bliss Independence Model and <0.9 by Highest Single Agent Model))”. The “synergy, additivity or antagonism” value (SK-MEL-24) was “+ (Additive relative to each agent alone (CI = 0.9-1 by Bliss Independence Model and <0.9 by Highest Single Agent Model))”, the “synergy, additivity or antagonism” value (K562) was “+ (Additive relative to each agent alone (CI = 0.9-1 by Bliss Independence Model and <0.9 by Highest Single Agent Model))” and the “synergy, additivity or antagonism” value (BT-20) was “+ (Additive relative to each agent alone (CI = 0.9-1 by Bliss Independence Model and <0.9 by Highest Single Agent Model))”. The “synergy, additivity or antagonism” value (LnCap) was “+ (Additive relative to each agent alone (CI = 0.9-1 by Bliss Independence Model and <0.9 by Highest Single Agent Model))”.
